Test results from patent publication US11256170B2, “Compound, resist composition, and method for forming resist pattern using it” (Mitsubishi Gas Chemical Company, Inc., priority 2015, dated 2022).

Assay: Safe solvent solubility test of compound
Assay type: physicochemical
Conditions: for Safe solvent CHN (solubility) / Safe solvent PGME (solubility) / Safe solvent PGMEA (solubility): 23° C., ultrasonic waves 30 minutes, visual; for solubility in safe solvents (in words): summary of Table 1
Procedure: The solubilities of the compound in CHN, PGME, and PGMEA were evaluated according to the following criteria utilizing the amount of dissolution in each solvent. The amount of dissolution was measured at 23° C. by precisely weighing the compound into a test tube, adding a subject solvent so as to attain a predetermined concentration, applying ultrasonic waves for 30 minutes in an ultrasonic cleaner, and visually observing the subsequent state of the fluid.
A: 5.0% by mass≤Amount of dissolution
B: 3.0% by mass≤Amount of dissolution<5.0% by mass
C: Amount of dissolution<3.0% by mass

Structure (SMILES) | Safe solvent CHN (solubility) | Safe solvent PGME (solubility) | Safe solvent PGMEA (solubility) | solubility in safe solvents (in words)
COc1cc(C2c3c(ccc4cc(OC(=O)OC(C)(C)C)ccc34)Oc3ccc4cc(OC(=O)OC(C)(C)C)ccc4c32)cc(I)c1OC(=O)OC(C)(C)C [Compound A-3-BOC] | A (5.0% by mass≤Amount of dissolution) | A (5.0% by mass≤Amount of dissolution) | B (3.0% by mass≤Amount of dissolution<5.0% by mass) | good solubility
CC(C)(C)OC(=O)Oc1ccc2c3c(ccc2c1)Oc1ccc2cc(OC(=O)OC(C)(C)C)ccc2c1C3c1ccc(-c2ccccc2)cc1 [XBisN-1-BOC, reference compound] | A (5.0% by mass≤Amount of dissolution) | B (3.0% by mass≤Amount of dissolution<5.0% by mass) | A (5.0% by mass≤Amount of dissolution) | good solubility
CC(C)(C)OC(=O)OCc1ccc2ccc3c(c2c1)C(c1cccc(I)c1)c1c(ccc2ccc(COC(=O)OC(C)(C)C)cc12)O3 [Compound B-1-MeBOC] | A (5.0% by mass≤Amount of dissolution) | A (5.0% by mass≤Amount of dissolution) | A (5.0% by mass≤Amount of dissolution) | good solubility
CC(C)(C)OC(=O)COc1ccc2c3c(ccc2c1)Oc1ccc2cc(OCC(=O)OC(C)(C)C)ccc2c1C3c1cccc(I)c1 [Compound A-1-MeBOC] | A (5.0% by mass≤Amount of dissolution) | A (5.0% by mass≤Amount of dissolution) | A (5.0% by mass≤Amount of dissolution) | good solubility
COc1cc(C2c3c(ccc4cc(OCC(=O)OC(C)(C)C)ccc34)Oc3ccc4cc(OCC(=O)OC(C)(C)C)ccc4c32)cc(I)c1OCC(=O)OC(C)(C)C [Compound A-3-MeBOC] | A (5.0% by mass≤Amount of dissolution) | A (5.0% by mass≤Amount of dissolution) | A (5.0% by mass≤Amount of dissolution) | good solubility
CC(C)(C)OC(=O)Oc1ccc2ccc3c(c2c1)C(c1cccc(I)c1)c1c(ccc2ccc(OC(=O)OC(C)(C)C)cc12)O3 [Compound B-1-BOC] | A (5.0% by mass≤Amount of dissolution) | A (5.0% by mass≤Amount of dissolution) | A (5.0% by mass≤Amount of dissolution) | good solubility
CC(C)(C)OC(=O)Oc1ccc2c3c(ccc2c1)Oc1ccc2cc(OC(=O)OC(C)(C)C)ccc2c1C3c1cccc(I)c1 [Compound A-1-BOC] | A (5.0% by mass≤Amount of dissolution) | A (5.0% by mass≤Amount of dissolution) | A (5.0% by mass≤Amount of dissolution) | good solubility
